Paper PMC5125615 (Biochemistry, 2015)
Numbering of substitutions follows the chain as printed.

Legend:
[1] = target: T1, RsTSPO (Cereibacter sphaeroides, UniProt Q9RFC8, A136L/A138F/T137A); assay: fluorescence quenching; format: binding
T1 sequence (Q9RFC8 1-158 A136L/T137A/A138F): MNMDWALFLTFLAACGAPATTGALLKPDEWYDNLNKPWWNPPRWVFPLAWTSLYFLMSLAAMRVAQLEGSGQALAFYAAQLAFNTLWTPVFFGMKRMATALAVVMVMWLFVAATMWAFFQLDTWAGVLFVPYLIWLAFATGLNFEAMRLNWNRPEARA

[2] = target: T2, RsTSPO (Cereibacter sphaeroides, UniProt Q9RFC8); assay: fluorescence quenching; format: binding; conditions: affinity value, symbol not given
T2 sequence (Q9RFC8 1-158): T1 sequence (Q9RFC8 1-158 A136L/T137A/A138F) with L136A, A137T, F138A

[3] = target: T2, RsTSPO; assay: binding to purified protein
[4] = target: T1, RsTSPO; assay: binding to purified protein
[5] = target: T1, RsTSPO; assay: binding to purified protein; remark: listed apart in the source
[6] = target: T2, RsTSPO; assay: binding to purified protein; conditions: affinity value, symbol not given

`CCC(C)N(C)C(=O)c1cc2ccccc2c(-c2ccccc2Cl)n1` (stereo not drawn) [PK11195] showed a Kd [1] of 15 ± 4 µM and a Kd [2] of 10 ± 1 µM.
With `CC(C)CCC[C@@H](C)[C@H]1CC[C@H]2[C@@H]3CC=C4C[C@@H](O)CC[C@]4(C)[C@H]3CC[C@]12C` [cholesterol] the Kd [3] was about 80 µM and the Kd [4] was about 0.02 µM.
With `C=CC1=C(C)c2cc3[nH]c(cc4nc(cc5[nH]c(cc1n2)c(C)c5CCC(=O)O)C(CCC(=O)O)=C4C)c(C)c3C=C` [protoporphyrin IX] the Kd [5] was 1.1 ± 0.1 µM and the Kd [6] was 0.31 ± 0.01 µM.
